Values of other authors as cited in patent US20100297195A1, “CONTROLLED RELEASE LAMOTRIGINE FORMULATIONS” (RANBAXY LABORATORIES LIMITED, priority 2009, published 2010).

Details: oral administration

- absolute bioavailability: 98%
- effect of food on bioavailability: not affected by food
Structure (SMILES): Nc1nnc(-c2cccc(Cl)c2Cl)c(N)n1 [Lamotrigine, 3,5-diamino-6-(2,3-dichlorophenyl)-1,2,4-triazine]
